{
  "source": "patent US20130310387A1",
  "about": "“Monocyclic Heteroaryl Cycloalkyldiamine Derivatives” (NOVARTIS AG, priority 2012, published 2013)",
  "key": {"[1]": {"tested_on": "SLP-76 phosphorylation in human whole blood monocytes", "experiment": "FcR stimulation-induced SLP-76 phosphorylation in human whole blood monocytes", "format": "cell-based", "conditions": "Monocyte, 5 min, anti CD32 stimulation 5 min, flow cytometry, read-out: Fc Recepor stimulation induced SLP-76 phosphorylation in human whole blood monocytes, IC50", "source_text": "After lysis of erythrocytes and washings, the cell pellet was permeabilized with ice-cold methanol 90%. The permeabilized cells were washed and stained with anti CD14 (eBioscience) to detect monocytes and anti P-SLP76 ([…]) (BD Biosciences) and quantified by flow cytometry."}, "[2]": {"molecular_target": "Syk (2-635) (KSYK_HUMAN, P43405) (Homo sapiens, UniProt P43405)", "experiment": "Syk enzyme assay (chip based microfluidic mobility shift assay)", "format": "biochemical", "conditions": "4 μM ATP, 4 nM Syk, 60 minutes at 30° C.", "description": "A number of compounds of the present invention were assayed in a chip based microfluidic mobilitiy shift assay. All assays were performed in 384 well microtiter plates. Each assay plate contained 8-point serial dilutions for 40 test compounds, as well as four 8-point serial dilutions of staurosporine as reference compound, plus 16 high- and 16 low controls. Liquid handling and incubation steps were done on a Thermo CatX workstation equipped with a Innovadyne Nanodrop Express. Between pipetting steps, tips were cleaned in wash cycles using wash buffer. The assay plates were prepared by addition of 50 nl per well of compound solution in 90% DMSO. […] Kinase reactions were incubated at 30° C. for 60 minutes and subsequently terminated by addition of 16 μl per well of stop solution (100 mM HEPES pH 7.5, 5% DMSO, 0.1% Caliper coating reagent, 10 mM EDTA, and 0.015% Brij35). Plates with terminated kinase reactions were transferred to the Caliper LC3000 workstations for reading. Phosphorylated and unphosphorylated peptides were separated using the Caliper microfluidic mobility shift technology. Briefly, samples from terminated kinase reactions were applied to the chip. Analytes are transported through the chip by constant buffer flow and the migration of the substrate peptide is monitored by the fluorescence signal of its label. Phosphorylated peptide (product) and unphosphorylated peptide (substrate) are separated in an electric field by their charge/mass ratio. Kinase activities were calculated from the amounts of formed phospho-peptide. […] values were determined from percent inhibition values at different compound concentrations by non-linear regression analysis.\nTest compounds were dissolved in DMSO (10 mM) and transferred into 1.4 mL flat bottom or V-shaped Matrix tubes carrying a unique 2D matrix. The stock solutions were stored at […] if not used immediately. For the test procedure the vials were defrosted and identified by a scanner whereby a working sheet was generated that guided the subsequent working steps.\nCompound dilutions were made in 96 well plates. This format enabled the assay of maximally 40 individual test compounds at 8 concentrations (single points) including 4 reference compounds. The dilution protocol included the production of “pre-dilution plates”, “master plates” and “assay plates”.\n96 polypropylene well plates were used as pre-dilution plates. A total of 4 pre-dilution plates were prepared including 10 test compounds each on the plate positions A1-A10, one standard compound at A11 and one DMSO control at A12. All dilution steps were done on a HamiltonSTAR robot.\n30 μL of individual compound dilutions including standard compound and controls of the 4 “pre-dilution plates” were transferred into a 384 “master plate” including the following concentrations 1′810, 362, 72.5, […], 14.5, 2.9, 0.58 and 0.12 μM, respectively in 90% of DMSO.\nIdentical “assay plates” were then prepared by pipetting […] each of compound dilutions of the “master plates” into 384-well “assay plates” by means of a HummingBird 384-channel dispenser. These plates were used directly for the assay which was performed in a total volume of 9.05 μL. This led to a final compound concentration of 10, 2.0, 0.4, 0.08, 0.016, 0.0032, 0.00064 and 0.000128 μM and a final DMSO concentration of 0.5% in the assay."}},
  "data": [
    {"smiles": "NC(=O)c1nnc(N[C@@H]2CCCC[C@@H]2N)nc1Nc1cccc2cc[nH]c12", "note": "[Example 1.1, 3-((1R,2S)-2-Amino-cyclohexylamino)-5-(1H-indol-7-ylamino)-[1,2,4]triazine-6-carboxylic acid amide]", "values": [
      {"measurement": "IC50", "setting": "[1]", "value": 378, "unit": "nM"},
      {"measurement": "IC50", "setting": "[2]", "value": 23, "unit": "nM"}
    ]}
  ]
}
